# Data as given in patent US20220323406A1, “METHODS AND COMPOSITIONS FOR DIFFERENTIATING STEM CELLS” (Massachusetts Institute of Technology, priority 2019, published 2022).
# Structures can show the parent of a compound that is named as a salt.
# Assays:
# [1] = tested on: ENR+CD organoids (ISC to Paneth cell differentiation); assay: Primary screen: CCh-stimulated lysozyme secretion LYZ.S, 2.5-D 384-well ENR+CD organoid differentiation; assay type: cell-based, mouse; conditions: primary screen
# Source text: (§1) High-throughput screening.
# [2] = tested on: ENR+CD organoids (ISC to Paneth cell differentiation); assay: Primary screen: basal (non-stimulated) lysozyme secretion LYZ.NS, 2.5-D 384-well ENR+CD organoid differentiation; assay type: cell-based, mouse
# Source text: as §1
# [3] = tested on: ENR+CD organoids; assay: Primary screen: ATP (CellTiter-Glo 3D, CTG) cell number/viability, 2.5-D 384-well ENR+CD organoids; conditions: primary screen; for Z.CTG: standard z score;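 on all read-outs here: compounds given at plating and again on day 3 over a 6-day differentiation from ENR+CV stem-cell-enriched precursors, ATP measured on day 6, plate median as control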
# [4] = primary screen, standard z score, dose 0.08 uM
# [5] = primary screen, standard z score, dose 0.40 uM
# [6] = primary screen, standard z score, dose 2.00 uM
# [7] = primary screen, standard z score, dose 10.00 uM
# [8] = dose 0.08 uM, FC vs plate median
# [9] = dose 0.40 uM, FC vs plate median
# [10] = dose 2.00 uM, FC vs plate median
# [11] = dose 10.00 uM, FC vs plate median
Compound,"Z.LYZ.NS (standard z score) ([2]; primary screen, dose 0.08 uM)","Z.LYZ.NS (standard z score) ([2]; primary screen, dose 0.40 uM)","Z.LYZ.NS (standard z score) ([2]; primary screen, dose 2.00 uM)","Z.LYZ.NS (standard z score) ([2]; primary screen, dose 10.00 uM)",Dose.FC.LYZ.S ([1]; dose 0.08 uM) [log2 fold change],Dose.FC.LYZ.S ([1]; dose 0.40 uM) [log2 fold change],Dose.FC.LYZ.S ([1]; dose 2.00 uM) [log2 fold change],Dose.FC.LYZ.S ([1]; dose 10.00 uM) [log2 fold change],"Dose.FC.LYZ.NS ([2]; primary screen, dose 0.08 uM) [log2 fold change]","Dose.FC.LYZ.NS ([2]; primary screen, dose 0.40 uM) [log2 fold change]","Dose.FC.LYZ.NS ([2]; primary screen, dose 2.00 uM) [log2 fold change]","Dose.FC.LYZ.NS ([2]; primary screen, dose 10.00 uM) [log2 fold change]",Dose.FC.CTG ([3]; dose 0.08 uM) [log2 fold change],Dose.FC.CTG ([3]; dose 0.40 uM) [log2 fold change],Dose.FC.CTG ([3]; dose 2.00 uM) [log2 fold change],Dose.FC.CTG ([3]; dose 10.00 uM) [log2 fold change],Z.CTG (standard z score) ([3]; dose 0.08 uM),Z.CTG (standard z score) ([3]; dose 0.40 uM),Z.CTG (standard z score) ([3]; dose 2.00 uM),Z.CTG (standard z score) ([3]; dose 10.00 uM),other results
N#Cc1ccc(C(c2ccc(C#N)cc2)n2cncn2)cc1 [Letrozole],0.570,1.115,0.082,−0.068,,,,,,,,,,,,,,,,,"Dose.FC.LYZ.S (log2 fold change) ([1]; dose 0.08 uM): 0.040; Dose.FC.LYZ.S (log2 fold change) ([1]; dose 0.40 uM): 0.150; Dose.FC.LYZ.S (log2 fold change) ([1]; dose 2.00 uM): 0.006; Dose.FC.LYZ.S (log2 fold change) ([1]; dose 10.00 uM): 0.006; Dose.FC.LYZ.NS (log2 fold change) ([2]; primary screen, dose 0.08 uM): 0.065; Dose.FC.LYZ.NS (log2 fold change) ([2]; primary screen, dose 0.40 uM): 0.128; Dose.FC.LYZ.NS (log2 fold change) ([2]; primary screen, dose 2.00 uM): 0.009; Dose.FC.LYZ.NS (log2 fold change) ([2]; primary screen, dose 10.00 uM): −0.008; Dose.FC.CTG (log2 fold change) ([3]; dose 0.08 uM): −0.013; Dose.FC.CTG (log2 fold change) ([3]; dose 0.40 uM): 0.101; Dose.FC.CTG (log2 fold change) ([3]; dose 2.00 uM): 0.099; Dose.FC.CTG (log2 fold change) ([3]; dose 10.00 uM): 0.171"
CCN(CC)C(=O)/C(C#N)=C/c1cc(O)c(O)c([N+](=O)[O-])c1 [Entacapone],,,,,0.020,0.024,0.072,0.027,0.136,0.012,0.085,0.100,−0.115,−0.065,0.206,−0.391,,,,,"Z.LYZ.NS [2, 4]: 1.183; Z.LYZ.NS [2, 5]: 0.102; Z.LYZ.NS [2, 6]: 0.744; Z.LYZ.NS [2, 7]: 0.870"
CCOc1ccccc1-n1c(C(C)N2CCN(C(=O)COc3ccc(Cl)cc3)CC2)nc2ccccc2c1=O (stereo not drawn) [Erastin],,,,,0.170,0.160,0.106,0.039,0.157,0.158,0.157,−0.015,0.225,0.285,0.380,0.298,,,,,"Z.LYZ.NS [2, 4]: 1.368; Z.LYZ.NS [2, 5]: 1.375; Z.LYZ.NS [2, 6]: 1.367; Z.LYZ.NS [2, 7]: −0.133"
CC12CC3CC(C)(C1)CC(N)(C3)C2 [Memantine HCl],0.598,0.032,0.919,−0.411,,,,,,,,,,,,,,,,,"Dose.FC.LYZ.S (log2 fold change) ([1]; dose 0.08 uM): 0.091; Dose.FC.LYZ.S (log2 fold change) ([1]; dose 0.40 uM): 0.017; Dose.FC.LYZ.S (log2 fold change) ([1]; dose 2.00 uM): 0.051; Dose.FC.LYZ.S (log2 fold change) ([1]; dose 10.00 uM): −0.021; Dose.FC.LYZ.NS (log2 fold change) ([2]; primary screen, dose 0.08 uM): 0.069; Dose.FC.LYZ.NS (log2 fold change) ([2]; primary screen, dose 0.40 uM): 0.004; Dose.FC.LYZ.NS (log2 fold change) ([2]; primary screen, dose 2.00 uM): 0.106; Dose.FC.LYZ.NS (log2 fold change) ([2]; primary screen, dose 10.00 uM): −0.047; Dose.FC.CTG (log2 fold change) ([3]; dose 0.08 uM): 0.083; Dose.FC.CTG (log2 fold change) ([3]; dose 0.40 uM): 0.072; Dose.FC.CTG (log2 fold change) ([3]; dose 2.00 uM): −0.007; Dose.FC.CTG (log2 fold change) ([3]; dose 10.00 uM): 0.077"
Cc1cc(-c2ccc(CC(=O)Nc3ccc(-c4cccnc4)cc3)cc2)ccn1 [Wnt-C59 (C59)],−1.424,−1.588,−1.724,−1.666,−0.242,−0.281,−0.313,−0.301,−0.163,−0.182,−0.198,−0.191,−0.572,−0.611,−0.627,−0.613,−1.366,−1.461,−1.498,−1.465,
O=C1NC(=O)/C(=C/c2ccc(-c3ccc(F)cc3O)o2)S1 [AS-252424],0.609,−0.368,−0.695,−0.671,0.072,−0.008,−0.074,−0.022,0.070,−0.042,−0.080,−0.077,0.139,−0.074,−0.359,−0.204,0.333,−0.176,−0.858,−0.487,
CN(C)Cc1ccc(-c2nc3cccc4c3n2CCNC4=O)cc1 [AG-14361],1.324,0.312,0.278,−1.713,0.100,−0.001,−0.065,−0.189,0.152,0.036,0.032,−0.197,−0.012,−0.069,0.005,−0.021,−0.028,−0.165,0.012,−0.050,
COc1ccc(CNCc2cccc3ccccc23)cc1.Cl [ML133 HCl],,,,,,,,,,,,,,,,,,,,,"Dose.FC.LYZ.S [1, 8]: 0.062 log2 fold change; Dose.FC.LYZ.S [1, 9]: −0.018 log2 fold change; Dose.FC.LYZ.S [1, 10]: 0.087 log2 fold change; Dose.FC.LYZ.S [1, 11]: −0.014 log2 fold change; Z.LYZ.NS ([2]; primary screen, dose 0.08 uM, standard z score): 0.261; Z.LYZ.NS ([2]; primary screen, dose 0.40 uM, standard z score): −0.116; Z.LYZ.NS ([2]; primary screen, dose 2.00 uM, standard z score): 0.633; Z.LYZ.NS ([2]; primary screen, dose 10.00 uM, standard z score): −0.155; Dose.FC.LYZ.NS ([2]; primary screen; dose 0.08 uM; FC vs plate median): 0.030 log2 fold change; Dose.FC.LYZ.NS ([2]; primary screen; dose 0.40 uM; FC vs plate median): −0.013 log2 fold change; Dose.FC.LYZ.NS ([2]; primary screen; dose 2.00 uM; FC vs plate median): 0.073 log2 fold change; Dose.FC.LYZ.NS ([2]; primary screen; dose 10.00 uM; FC vs plate median): −0.018 log2 fold change; Z.CTG ([3]; dose 0.08 uM): −0.023; Z.CTG ([3]; dose 0.40 uM): −0.360; Z.CTG ([3]; dose 2.00 uM): −0.591; Z.CTG ([3]; dose 10.00 uM): −0.096; Dose.FC.CTG [3, 8]: −0.009 log2 fold change; Dose.FC.CTG [3, 9]: −0.151 log2 fold change; Dose.FC.CTG [3, 10]: −0.247 log2 fold change; Dose.FC.CTG [3, 11]: −0.040 log2 fold change"
